According to ChEMBL document CHEMBL3232732, “A,D-seco-limonoids from the stems of Clausena emarginata” (J Nat Prod, 2014):
Activity calls are given as the source filed them. The calls are words filed in the database; no cut-off is given here.

Key:
Format in all cases: functional, cell-based
SK-OV-3 = assay: Cytotoxicity against human SKOV3 cells after 96 hrs by MTT assay; conditions: SK-OV-3, 96 h
HCT-116 = assay: Cytotoxicity against human HCT116 cells after 96 hrs by MTT assay; conditions: HCT-116, 96 h
BV-2 = assay: Inhibition of LPS-induced NO production in mouse BV2 cells compound pre-treated for 1 hr before LPS addition measured after 24 hrs by Griess assay
[1] = Cytotoxicity against human BGC823 cells after 96 hrs by MTT assay; conditions: BGC-823, 96 h
NCI-H1650 = assay: Cytotoxicity against human NCI-H1650 cells after 96 hrs by MTT assay; conditions: NCI-H1650, 96 h
HepG2 = assay: Cytotoxicity against human HepG2 cells after 96 hrs by MTT assay; conditions: HepG2, 96 h

SMILES	IC50 (SK-OV-3)	IC50 (HCT-116)	IC50 (BV-2)	IC50 [1]	IC50 (NCI-H1650)	IC50 (HepG2)	inhibition (BV-2)
CCOC(=O)C[C@H](OC(C)=O)[C@]1(C)[C@H]2[C@@H](O)C[C@@]3(C)[C@H](c4ccoc4)OC(=O)[C@H]4O[C@]43[C@]2(C)C(=O)C[C@H]1C(C)(C)O	> 10 µM	> 10 µM	5.1 µM	> 10 µM	> 10 µM	> 10 µM	
COC(=O)C[C@H]1OC(C)(C)[C@@H]2CC(=O)[C@]3(C)[C@H]([C@@H](O)C[C@@]4(C)[C@H](c5ccoc5)OC(=O)[C@H]5O[C@]543)[C@@]12C	> 10 µM	> 10 µM	10 µM	> 10 µM	> 10 µM	> 10 µM	
COC(=O)C[C@H]1OC(C)(C)[C@@H]2CC(=O)[C@]3(C)[C@H]([C@@H](O)C[C@@]4(C)[C@H](C5=CC(=O)OC5O)OC(=O)[C@H]5O[C@]543)[C@@]12C (stereo partly specified)	> 10 µM	> 10 µM		> 10 µM	> 10 µM	> 10 µM	inactive
COC(=O)C[C@H](OC(C)=O)[C@]1(C)[C@H]2[C@@H](O)C[C@@]3(C)[C@H](c4ccoc4)OC(=O)[C@H]4O[C@]43[C@]2(C)C(=O)C[C@H]1C(C)(C)O	> 10 µM	> 10 µM	8.8 µM	> 10 µM	> 10 µM	> 10 µM	
CC(=O)O[C@H]1CC(=O)OC(C)(C)[C@@H]2CC(=O)[C@]3(C)[C@H]([C@@H](O)C[C@@]4(C)[C@H](c5ccoc5)OC(=O)[C@H]5O[C@]543)[C@@]12C	> 10 µM	> 10 µM		> 10 µM	> 10 µM	> 10 µM	inactive
COc1cc(/C=C/C(=O)CC(=O)/C=C/c2ccc(O)c(OC)c2)ccc1O [CURCUMIN]			0.5 µM				
CC1(C)OC(=O)C=C[C@]2(C)[C@H]3[C@@H](O)C[C@@]4(C)[C@@H](C5=CC(=O)OC5O)OC(=O)[C@H]5O[C@]54[C@]3(C)C(=O)C[C@@H]12 (stereo partly specified)	> 10 µM	> 10 µM		> 10 µM	> 10 µM	> 10 µM	inactive
CC(=O)O[C@H]1CC(=O)OC(C)(C)[C@@H]2CC(=O)[C@]3(C)[C@H]([C@@H](O)C[C@@]4(C)[C@H](C5=CC(O)OC5=O)OC(=O)[C@H]5O[C@]543)[C@@]12C (stereo partly specified)	> 10 µM	> 10 µM		> 10 µM	> 10 µM	> 10 µM	inactive
CC1(C)OC(=O)C=C[C@]2(C)[C@H]3[C@@H](O)C[C@@]4(C)[C@H](C5=CC(O)OC5=O)OC(=O)[C@H]5O[C@]54[C@]3(C)C(=O)C[C@@H]12 (stereo partly specified)	> 10 µM	> 10 µM		> 10 µM	> 10 µM	> 10 µM	inactive
CC(=O)O[C@@H](CC(=O)O)[C@]1(C)[C@H]2[C@@H](O)C[C@@]3(C)[C@H](C4=CC(O)OC4=O)OC(=O)[C@H]4O[C@]43[C@]2(C)C(=O)C[C@H]1C(C)(C)O (relative stereo)	> 10 µM	> 10 µM		> 10 µM	> 10 µM	> 10 µM	inactive
CC(=O)O[C@H]1CC(=O)OC(C)(C)[C@@H]2CC(=O)[C@]3(C)[C@H]([C@@H](O)C[C@@]4(C)[C@H](C5=CC(=O)OC5O)OC(=O)[C@H]5O[C@]543)[C@@]12C (relative stereo)	> 10 µM	> 10 µM		> 10 µM	> 10 µM	> 10 µM	inactive
CC1(C)OC(=O)C=C[C@]2(C)[C@H]3[C@@H](O)C[C@@]4(C)[C@H](c5ccoc5)OC(=O)[C@H]5O[C@]54[C@]3(C)C(=O)C[C@@H]12	> 10 µM	> 10 µM	5.3 µM	> 10 µM	> 10 µM	> 10 µM	
CC(C)(O)[C@@H]1CC(=O)[C@]2(C)[C@@H]3[C@H](C[C@@]4(C)[C@H](c5ccoc5)OC(=O)[C@H]5O[C@]542)OC(=O)C=C[C@]31C	> 10 µM	> 10 µM		> 10 µM	> 10 µM	> 10 µM	inactive
COC(=O)C[C@H]1OC(C)(C)[C@@H]2CC(=O)[C@]3(C)[C@H]([C@@H](O)C[C@@]4(C)[C@H](C5=CC(O)OC5=O)OC(=O)[C@H]5O[C@]543)[C@@]12C (relative stereo)	> 10 µM	> 10 µM		> 10 µM	> 10 µM	> 10 µM	inactive
COC(=O)C[C@@H]1OC(C)(C)[C@@H]2CC(=O)[C@]3(C)[C@H]([C@@H](O)C[C@@]4(C)[C@H](c5ccoc5)OC(=O)[C@H]5O[C@]543)[C@@]12C	> 10 µM	> 10 µM	6.7 µM	> 10 µM	> 10 µM	> 10 µM	
COC(=O)C[C@H](O)[C@]1(C)[C@H]2[C@@H](O)C[C@@]3(C)[C@H](c4ccoc4)OC(=O)[C@H]4O[C@]43[C@]2(C)C(=O)C[C@H]1C(C)(C)O	> 10 µM	> 10 µM	7 µM	> 10 µM	> 10 µM	> 10 µM	
